One assay concerns HCT116 MTAP null cells. Description: HCT116 MTAP null cell proliferation / viability (CellTiter-Glo, 6 days). The class given is cell-based. The settings on record: HCT116 MTAP null cells, 6 days, CellTiter-Glo, read-out: HCT-116 MTAP null IC50. In outline:
(§1)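 CellTiter-Glo luminescence, 6-day exposure, RPMI 1640 + 10% FBS. Dosing: 1:3 series (8-9 pts, top 1 or 10 μM) or 1:2 series (22 pts, top 10 or 50 μM), DMSO control. IC50 = 50% of control via curve fit.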
(In general: ATP-based viability assays read luminescence as a measure of living cells.)

For a further assay, the system named is HCT116 WT cells. Description: HCT116 WT cell proliferation / viability (CellTiter-Glo, 6 days). In kind it is cell-based. To be noted: HCT116 WT cells, 6 days, CellTiter-Glo, read-out: HCT-116 WT IC50. In outline:
as §1

Like-named read-outs stand apart in the source and are kept apart here. Some results are limits rather than exact numbers.

In general, IC50 refers to the concentration that inhibits the measured activity by half.

Consider `CCN(Cc1ccc(Cl)cn1)C(=O)c1ccc2nc(N)c3c(c2c1)COC3` [Example 701, 4-amino-N-((5-chloro-2-pyridinyl)methyl)-N-ethyl-1,3-dihydrofuro[3,4-c]quinoline-8-carboxamide], for which the IC50 in the assay with HCT116 MTAP null cells (HCT116-MTAP null, 144 h) amounted to 193 nM; with HCT116 WT cells (Homo sapiens, HCT-116, 144 h), 7250 nM.
As for `CN(Cc1ccc(C(F)(F)F)cn1)C(=O)c1cc2c(cc1F)nc(N)c1cnn(C)c12` [Example 802, 4-amino-7-fluoro-N,1-dimethyl-N-((5-(trifluoromethyl)-2-pyridinyl)methyl)-1H-pyrazolo[4,3-c]quinoline-8-carboxamide], the IC50 in the assay with HCT116 MTAP null cells (HCT116-MTAP null, 144 h) was found to be 21 nM; in the assay with HCT116 WT cells (Homo sapiens, HCT-116, 144 h), 1380 nM.
Turning to `Cn1cc(N(Cc2ccc(C(F)(F)F)cn2)C(=O)c2cc3c(cc2F)nc(N)c2c3cnn2C)cn1` [Example 506, 4-amino-7-fluoro-3-methyl-N-(1-methyl-1H-pyrazol-4-yl)-N-((5-(trifluoromethyl)-2-pyridinyl)methyl)-3H-pyrazolo[3,4-c]quinoline-8-carboxamide], the IC50 in the assay with HCT116 MTAP null cells (HCT116-MTAP null, 144 h) amounted to 9 nM; with HCT116 WT cells (Homo sapiens, HCT-116, 144 h), 369 nM.
Turning to `Cn1ncc2c3cc(C(=O)N(Cc4ccc(OCC(F)(F)F)nn4)CC4CC4)c(F)cc3nc(N)c21` [Example 817, 4-amino-N-(cyclopropylmethyl)-7-fluoro-3-methyl-N-((6-(2,2,2-trifluoroethoxy)-3-pyridazinyl)methyl)-3H-pyrazolo[3,4-c]quinoline-8-carboxamide], the IC50 with HCT116 MTAP null cells (HCT116-MTAP null, 144 h) is 28 nM; with HCT116 WT cells (Homo sapiens, HCT-116, 144 h), 689 nM.
Taken in the same sequence, the figures for `CC(C)CN(Cc1ccc(C(F)(F)F)cn1)C(=O)c1ccc2nc(N)c3c(c2c1)CO[C@@H]3CO` (single isomer, unassigned) [Example 580] were 321 nM and 10800 nM.
As to `CC(C)N(Cc1ccc(Br)nn1)C(=O)c1cc2c3c(c(N)nc2cn1)COC3` [Example 684, 4-amino-N-((6-bromo-3-pyridazinyl)methyl)-N-(2-propanyl)-1,3-dihydrofuro[3,4-c][1,7]naphthyridine-8-carboxamide], the IC50 in the assay with HCT116 MTAP null cells (HCT116-MTAP null, 144 h) is 342 nM; in the assay with HCT116 WT cells (Homo sapiens, HCT-116, 144 h), > 10000 nM.
The like results for `COC[C@@H](C)N(Cc1ccc(Cl)nn1)C(=O)c1cc2c3c(c(N)nc2cn1)[C@@H](C)OC3` [Example 308, (3R)-4-amino-N-((6-chloro-3-pyridazinyl)methyl)-N-((2R)-1-methoxy-2-propanyl)-3-methyl-1,3-dihydrofuro[3,4-c][1,7]naphthyridine-8-carboxamide] were, in that order, 124 nM and 5100 nM.
For the compound `CCN(Cc1ccc(S(F)(F)(F)(F)F)cc1)C(=O)c1cc2c(cc1F)nc(N)c1cnn(C)c12` [Example 566, 4-amino-N-ethyl-7-fluoro-1-methyl-N-(4-(pentafluoro-lambda~6~-sulfanyl)benzyl)-1H-pyrazolo[4,3-c]quinoline-8-carboxamide], the IC50 with HCT116 MTAP null cells (HCT116-MTAP null, 144 h) is 13 nM; with HCT116 WT cells (Homo sapiens, HCT-116, 144 h) it was 181 nM.
In the case of `C[C@H](c1ncccn1)N(Cc1ccc(C#N)cn1)C(=O)c1ccc2nc(N)c3c(c2c1)CCC3` [Example 615, 4-amino-N-((5-cyano-2-pyridinyl)methyl)-N-((1R)-1-(2-pyrimidinyl)ethyl)-2,3-dihydro-1H-cyclopenta[c]quinoline-8-carboxamide], the IC50 in the assay with HCT116 MTAP null cells (HCT116-MTAP null, 144 h) was found to be 19 nM; in the assay on HCT116 WT cells (Homo sapiens, HCT-116, 144 h) it was 271 nM.
With `C[C@@H](c1ncc(F)cn1)N(CCOC(F)(F)F)C(=O)c1cc2c3c(c(N)nc2cc1F)COC3` (single isomer, unassigned) [Example 833], the IC50 in the assay with HCT116 MTAP null cells (HCT116-MTAP null, 144 h) turned out to be 2560 nM; in the assay with HCT116 WT cells (Homo sapiens, HCT-116, 144 h), 27200 nM.
As to `CCN(Cc1ccc(C(F)(F)F)cn1)C(=O)c1ccc2nc(N)c3c(c2c1)CO[C@@H]3C` [Example 360, (3R)-4-amino-N-ethyl-3-methyl-N-((5-(trifluoromethyl)-2-pyridinyl)methyl)-1,3-dihydrofuro[3,4-c]quinoline-8-carboxamide], the IC50 with HCT116 MTAP null cells (HCT116-MTAP null, 144 h) is 53 nM; in the assay with HCT116 WT cells (Homo sapiens, HCT-116, 144 h), 3070 nM.
As to `Cn1ncc2c(N)nc3ccc(C(=O)N(Cc4ccc(C(F)(F)F)cn4)C4CC4)cc3c21` [Example 569, 4-amino-N-cyclopropyl-1-methyl-N-((5-(trifluoromethyl)-2-pyridinyl)methyl)-1H-pyrazolo[4,3-c]quinoline-8-carboxamide], the IC50 stood at 31 nM in the assay with HCT116 MTAP null cells (HCT116-MTAP null, 144 h) and 3890 nM in the assay on HCT116 WT cells (Homo sapiens, HCT-116, 144 h).
Taken in the same sequence, the figures for `CC(C)CN(Cc1ccc(C(F)(F)F)cn1)C(=O)c1cc2c3c(c(N)nc2cn1)COC3` [Example 620, 4-amino-N-(2-methylpropyl)-N-((5-(trifluoromethyl)-2-pyridinyl)methyl)-1,3-dihydrofuro[3,4-c][1,7]naphthyridine-8-carboxamide] were 77 nM and 3560 nM.
Taken in the same sequence, the figures for `CC(C)N(Cc1ccc(C2CC2)nc1)C(=O)c1cc2c3c(c(N)nc2cc1Cl)COC3` [Example 401, 4-amino-7-chloro-N-((6-cyclopropyl-3-pyridinyl)methyl)-N-(2-propanyl)-1,3-dihydrofuro[3,4-c]quinoline-8-carboxamide] were 84 nM and 3080 nM.
The like results for `CN(Cc1ccc(S(F)(F)(F)(F)F)cc1)C(=O)c1cc2c3c(c(N)nc2cn1)COC3` [Example 511, 4-amino-N-methyl-N-(4-(pentafluoro-lambda~6~- sulfanyl)benzyl)-1,3-dihydrofuro[3,4-c][1,7]naphthyridine-8-carboxamide] were, in that order, 122 nM and 4920 nM.
As for `C[C@H](c1ncccn1)N(Cc1ccc(Br)nn1)C(=O)c1ccc2nc(N)c3c(c2c1)COC3` [Example 657, 4-amino-N-((6-bromo-3-pyridazinyl)methyl)-N-((1R)-1-(2-pyrimidinyl)ethyl)-1,3-dihydrofuro[3,4-c]quinoline-8-carboxamide], the IC50 turned out to be 13 nM with HCT116 MTAP null cells (HCT116-MTAP null, 144 h) and 196 nM with HCT116 WT cells (Homo sapiens, HCT-116, 144 h).
As for `CC(C)CN(Cc1ccc(C(F)(F)F)cn1)C(=O)c1ccc2nc(N)c3ccncc3c2c1` [Example 632, 5-amino-N-(2-methylpropyl)-N-((5-(trifluoromethyl)-2-pyridinyl)methyl)benzo[c][2,6]naphthyridine-9-carboxamide], the 50% inhibitory concentration (IC50) is 11 nM with HCT116 MTAP null cells (HCT116-MTAP null, 144 h) and 231 nM in the assay on HCT116 WT cells (Homo sapiens, HCT-116, 144 h).
For `CC(C)N(C(=O)c1ccc2nc(N)c3c(c2c1)COC3)[C@@H](C)c1ccc(C(F)(F)F)cn1` (single isomer, unassigned) [Example 831], the half-inhibitory concentration (IC50) was 2570 nM with HCT116 MTAP null cells (HCT116-MTAP null, 144 h) and 31700 nM in the assay with HCT116 WT cells (Homo sapiens, HCT-116, 144 h).
In the case of `C[C@H]1OCc2c1c(N)nc1ccc(C(=O)N(C)Cc3ccc(C(F)(F)F)nn3)cc21` [Example 485, (3R)-4-amino-N,3-dimethyl-N-((6-(trifluoromethyl)-3-pyridazinyl)methyl)-1,3-dihydrofuro[3,4-c]quinoline-8-carboxamide], the IC50 with HCT116 MTAP null cells (HCT116-MTAP null, 144 h) is 365 nM; in the assay on HCT116 WT cells (Homo sapiens, HCT-116, 144 h) it was 32100 nM.
With `C[C@H](c1ccc(C(F)(F)F)cn1)N(C(=O)c1cc2c3c(c(N)nc2cn1)COC3)c1cnn(C)c1` (single isomer, unassigned) [Example 825], the IC50 with HCT116 MTAP null cells (HCT116-MTAP null, 144 h) was found to be 22 nM; in the assay on HCT116 WT cells (Homo sapiens, HCT-116, 144 h), 276 nM.
For `Nc1nc2ccc(C(=O)N(Cc3ccc(C(F)(F)F)cn3)C34CC(C3)C4)cc2c2c1COC2` [Example 471, 4-amino-N-(bicyclo[1.1.1]pentan-1-yl)-N-((5-(trifluoromethyl)-2-pyridinyl)methyl)-1,3-dihydrofuro[3,4-c]quinoline-8-carboxamide], the IC50 in the assay with HCT116 MTAP null cells (HCT116-MTAP null, 144 h) is 43 nM; in the assay with HCT116 WT cells (Homo sapiens, HCT-116, 144 h), 1160 nM.
Take `C[C@@H](c1ccc(C(F)(F)F)nn1)N(C(=O)c1cc2c(cc1Cl)nc(N)c1cnn(C)c12)C1CC1` (single isomer, unassigned) [Example 880]: the IC50 with HCT116 MTAP null cells (HCT116-MTAP null, 144 h) worked out at 137 nM; in the assay with HCT116 WT cells (Homo sapiens, HCT-116, 144 h), 8310 nM.
With `CO[C@@H]1CCOC[C@H]1N(Cc1ccc(C#N)c(C)n1)C(=O)c1ccc2nc(N)c3c(c2c1)COC3` (single isomer, unassigned) [Example 588], the IC50 in the assay with HCT116 MTAP null cells came out at 79 nM; with HCT116 WT cells, 1950 nM.
In the case of `Cc1cc2nc(N)c3cnn(C)c3c2cc1C(=O)N(C)Cc1ccc(C(F)(F)F)cn1` [Example 521, 4-amino-N,1,7-trimethyl-N-((5-(trifluoromethyl)-2-pyridinyl)methyl)-1H-pyrazolo[4,3-c]quinoline-8-carboxamide], the IC50 in the assay on HCT116 MTAP null cells (HCT116-MTAP null, 144 h) turned out to be 18 nM; in the assay with HCT116 WT cells (Homo sapiens, HCT-116, 144 h), 698 nM.
As to `CC(C)N(Cc1ccc(C(F)(F)F)cn1)C(=O)c1cc2c3c(c(N)nc2cn1)COC3` [Example 675, 4-amino-N-(2-propanyl)-N-((5-(trifluoromethyl)-2-pyridinyl)methyl)-1,3-dihydrofuro[3,4-c][1,7]naphthyridine-8-carboxamide], the IC50 turned out to be 66 nM in the assay on HCT116 MTAP null cells (HCT116-MTAP null, 144 h) and 12700 nM in the assay with HCT116 WT cells (Homo sapiens, HCT-116, 144 h).
Consider `Cn1ncc2c(N)nc3ccc(C(=O)N(Cc4ccc(C(F)(F)F)cn4)CC(F)(F)F)cc3c21` [Example 797, 4-amino-1-methyl-N-(2,2,2-trifluoroethyl)-N-((5-(trifluoromethyl)-2-pyridinyl)methyl)-1H-pyrazolo[4,3-c]quinoline-8-carboxamide], for which the IC50 in the assay with HCT116 MTAP null cells (HCT116-MTAP null, 144 h) was 41 nM; in the assay with HCT116 WT cells (Homo sapiens, HCT-116, 144 h), 755 nM.
The like results for `CC(C)N(Cc1ccc(C(F)(F)F)cn1)C(=O)c1cc2c3c(c(N)nc2cn1)[C@@H](C)OC3` [Example 310, (3R)-4-amino-3-methyl-N-(2-propanyl)-N-((5-(trifluoromethyl)-2-pyridinyl)methyl)-1,3-dihydrofuro[3,4-c][1,7]naphthyridine-8-carboxamide] were, in that order, 71 nM and 4050 nM.
The like results for `CN(Cc1ccc(Cl)cn1)C(=O)c1cc2c3c(c(N)nc2cn1)COC3` [Example 694, 4-amino-N-((5-chloro-2-pyridinyl)methyl)-N-methyl-1,3-dihydrofuro[3,4-c][1,7]naphthyridine-8-carboxamide] were, in that order, 415 nM and > 10000 nM.

These data come from US20240101570A1 (AMGEN INC., priority 2020, published 2024).
